Experimental data as given in US20150105252A1, “SUBSTITUTED PYRAZOLES AS HERBICIDES” (E I DU PONT DE NEMOURS AND COMPANY, priority 2013, published 2015).

What was measured:
velvetleaf [1] = assay: Test A preemergence; format: in vivo, Abutilon theophrasti; details: preemergence
Outline: (§1)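 Seeds were sown in a loam soil–sand blend and given a directed soil spray preemergence; postemergence plants at 2–10 cm, one- to two-leaf stage, were sprayed with compound in non-phytotoxic solvent with surfactant. After about 10 days in a greenhouse, injury was visually rated against untreated controls (0 = no effect, 100 = complete control).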

corn = assay: Test A preemergence; format: in vivo, Zea mays; details: preemergence
Outline: as §1

velvetleaf [2] = assay: Test A postemergence; format: in vivo, Abutilon theophrasti
Outline: as §1

crabgrass, large = assay: Test C preemergence; format: in vivo, Digitaria sanguinalis
Outline: (§2)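 Seeds sown in loam–sand blend and treated preemergence with test chemicals in non-phytotoxic solvent with surfactant; postemergence plants in peat-based medium, treated at 2–18 cm (1- to 4-leaf stage). Greenhouse 13 to 15 days, then visual rating versus controls, 0 (no effect) to 100 (complete control).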

wheat [3] = assay: Test C postemergence; format: in vivo, Triticum aestivum; details: for Wheat plant response rating / Plant response rating, Wheat: postemergence; for Wheat plant response rating: scale 0 to 100
Outline: as §2

velvetleaf [4] = assay: Test C preemergence; format: in vivo, Abutilon theophrasti
Outline: as §2

foxtail, giant = assay: Test A preemergence; format: in vivo, Setaria faberii; details: preemergence
Outline: as §1

pigweed = assay: Test A postemergence; format: in vivo, Amaranthus retroflexus
Outline: as §1

velvetleaf [5] = assay: Test C postemergence; format: in vivo, Abutilon theophrasti; details: for Velvetleaf plant response rating / Plant response rating, Velvetleaf: postemergence; for Velvetleaf plant response rating: scale 0 to 100
Outline: as §2

johnsongrass = assay: Test C postemergence; format: in vivo, Sorghum halepense; details: for Plant response rating (scale of 0 to 100 where 0 is no effect and 100 is complete control), Johnsongrass: Postemergence, 31 g ai/ha, visually evaluated after 13 to 15 days; for Johnsongrass plant response rating / Plant response rating, Johnsongrass: postemergence; for Johnsongrass plant response rating: 62 g ai/ha, scale 0 to 100
Outline: as §2

rice = assay: Test B flood; format: in vivo, Oryza sativa; details: 250 g ai/ha, visual rating on 0 to 100 scale (0 no effect, 100 complete control), 13 to 15 days
Outline: (§3)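 Paddy-water application: seedlings at 2-leaf stage, flood depth 3 cm maintained for the test duration. Evaluation after 13–15 days in the greenhouse by eye relative to controls; 0–100 scale.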

lambsquarters = assay: Test C postemergence; format: in vivo, Chenopodium album; details: for Plant response rating (scale of 0 to 100 where 0 is no effect and 100 is complete control), Lambsquarters: Postemergence, 31 g ai/ha, visually evaluated after 13 to 15 days; for Lambsquarters plant response rating / Plant response rating, Lambsquarters: postemergence; for Lambsquarters plant response rating: 62 g ai/ha, scale 0 to 100
Outline: as §2

sedge, umbrella = assay: Test B flood; format: in vivo, Cyperus difformis; details: 250 g ai/ha, visual rating on 0 to 100 scale (0 no effect, 100 complete control), 13 to 15 days
Outline: as §3

wheat [6] = assay: Test C preemergence; format: in vivo, Triticum aestivum
Outline: as §2

waterhemp = assay: Test C postemergence; format: in vivo, Amaranthus rudis; details: for Waterhemp plant response rating / Plant response rating, Waterhemp: postemergence; for Waterhemp plant response rating: scale 0 to 100
Outline: as §2

[7] = 125 g ai/ha, visual injury, 0 to 100 scale, approx. 10 days
[8] = 500 g ai/ha, visual injury after approx. 10 days, 0 to 100 scale (0 no effect, 100 complete control)
[9] = Postemergence, 500 g ai/ha, visual rating after approx. 10 days, 0 to 100 scale (0 no effect, 100 complete control)
[10] = postemergence, 125 g ai/ha, about 10 days, visual rating on 0 to 100 scale (0 no effect, 100 complete control)
[11] = preemergence, 31 g ai/ha, visual rating, scale 0 to 100 (0 no effect, 100 complete control), 13 to 15 days
[12] = preemergence, 62 g ai/ha, scale 0 to 100 (0 no effect, 100 complete control), 13 to 15 days
[13] = preemergence, 125 g ai/ha, scale 0 to 100, 0 is no effect, 100 is complete control
[14] = Postemergence, 31 g ai/ha, visually evaluated after 13 to 15 days
[15] = 250 g ai/ha, scale 0 to 100 (0 no effect, 100 complete control)
[16] = 125 g ai/ha, scale 0 to 100, 0 no effect, 100 complete control
[17] = 125 g ai/ha, visual injury approx. 10 days after treatment
[18] = Postemergence, 125 g ai/ha, 0 to 100 scale, 0 no effect, 100 complete control
[19] = Postemergence, 500 g ai/ha, 0 to 100 scale (0 no effect, 100 complete control)
[20] = preemergence, 125 g ai/ha, 13 to 15 days, scale 0 to 100, 0 = no effect, 100 = complete control
[21] = preemergence, 250 g ai/ha, scale 0 to 100, 0 is no effect, 100 is complete control

CCc1cc(C(=O)NCC(F)(F)F)nn1Cc1cc(C(F)(F)F)nn1C [Compound 108, 5-ethyl-1-[[1-methyl-3-(trifluoromethyl)-1H-pyrazole-5-yl]methyl]-N-(2,2,2-trifluoroethyl)-1H-pyrazole-3-carboxamide]
Velvetleaf plant response rating (velvetleaf [1]; [7]): 60 | Velvetleaf plant response rating (velvetleaf [1]; [8]): 100 | Corn plant response rating (corn; [7]): 30 | Corn plant response rating (corn; [8]): 90 | Velvetleaf plant response rating (velvetleaf [2]; [9]): 100 | Velvetleaf plant response rating (velvetleaf [2]; [10]): 60 | Plant response rating (scale of 0 to 100), Crabgrass, Large (crabgrass, large; Preemergence, 250 g ai/ha): 100 | Crabgrass, Large plant response rating (crabgrass, large; [11]): 100 | Crabgrass, Large plant response rating (crabgrass, large; [12]): 100 | Crabgrass, Large plant response rating (crabgrass, large; [13]): 100 | Plant response rating (scale of 0 to 100 where 0 is no effect and 100 is complete control), Wheat (wheat [3]; [14]): 0 | Wheat plant response rating (wheat [3]; 62 g ai/ha): 5 | Plant response rating, Wheat (wheat [3]; [15]): 20 | Plant response rating, Wheat (wheat [3]; [16]): 10 | Plant response rating (scale of 0 to 100), Velvetleaf (velvetleaf [4]; Preemergence, 250 g ai/ha): 100 | Velvetleaf plant response rating (velvetleaf [4]; [11]): 55 | Velvetleaf plant response rating (velvetleaf [4]; [12]): 100 | Velvetleaf plant response rating (velvetleaf [4]; [13]): 100 | Foxtail, Giant plant response rating (foxtail, giant; [7]): 100 | Foxtail, Giant plant response rating (foxtail, giant; [8]): 100 | Pigweed plant response rating (pigweed; [9]): 100 | Pigweed plant response rating (pigweed; [10]): 90 | Plant response rating (scale of 0 to 100 where 0 is no effect and 100 is complete control), Velvetleaf (velvetleaf [5]; [14]): 5 | Velvetleaf plant response rating (velvetleaf [5]; 62 g ai/ha): 10 | Plant response rating, Velvetleaf (velvetleaf [5]; [15]): 40 | Plant response rating, Velvetleaf (velvetleaf [5]; [16]): 35 | Plant response rating (scale of 0 to 100 where 0 is no effect and 100 is complete control), Johnsongrass (johnsongrass): 0 | Johnsongrass plant response rating (johnsongrass): 0 | Plant response rating, Johnsongrass (johnsongrass; [15]): 5 | Plant response rating, Johnsongrass (johnsongrass; [16]): 0 | Plant response rating, Rice (rice): 15 | Plant response rating (scale of 0 to 100 where 0 is no effect and 100 is complete control), Lambsquarters (lambsquarters): 60 | Lambsquarters plant response rating (lambsquarters): 60 | Plant response rating, Lambsquarters (lambsquarters; [15]): 85 | Plant response rating, Lambsquarters (lambsquarters; [16]): 80 | Plant response rating, Sedge, Umbrella (sedge, umbrella): 70 | Plant response rating (scale of 0 to 100), Wheat (wheat [6]; Preemergence, 250 g ai/ha): 70 | Wheat plant response rating (wheat [6]; [11]): 10 | Wheat plant response rating (wheat [6]; [12]): 10 | Wheat plant response rating (wheat [6]; [13]): 60 | Plant response rating (scale of 0 to 100 where 0 is no effect and 100 is complete control), Waterhemp (waterhemp; [14]): 5 | Waterhemp plant response rating (waterhemp; 62 g ai/ha): 50 | Plant response rating, Waterhemp (waterhemp; [15]): 80 | Plant response rating, Waterhemp (waterhemp; [16]): 50

CCCc1cc(C(=O)NC(C)C)nn1Cc1cc(C(F)(F)F)nn1C [Compound 201]
Velvetleaf plant response rating (0 to 100 scale) (velvetleaf [1]; [17]): 100 | Velvetleaf plant response rating (velvetleaf [1]; [8]): 100 | Corn plant response rating (0 to 100 scale) (corn; [17]): 10 | Corn plant response rating (corn; [8]): 90 | Velvetleaf plant response rating (velvetleaf [2]; [18]): 70 | Velvetleaf plant response rating (velvetleaf [2]; [19]): 100 | Crabgrass, Large plant response rating (crabgrass, large; [11]): 100 | Crabgrass, Large plant response rating (crabgrass, large; [12]): 100 | Plant response rating, Crabgrass, Large (crabgrass, large; [20]): 100 | Crabgrass, Large plant response rating (crabgrass, large; [21]): 100 | Plant response rating, Wheat (wheat [3]; [15]): 10 | Wheat plant response rating (wheat [3]): 5 | Velvetleaf plant response rating (velvetleaf [4]; [11]): 90 | Velvetleaf plant response rating (velvetleaf [4]; [12]): 100 | Plant response rating, Velvetleaf (velvetleaf [4]; [20]): 100 | Velvetleaf plant response rating (velvetleaf [4]; [21]): 100 | Foxtail, Giant plant response rating (0 to 100 scale) (foxtail, giant; [17]): 100 | Foxtail, Giant plant response rating (foxtail, giant; [8]): 100 | Pigweed plant response rating (pigweed; [18]): 100 | Pigweed plant response rating (pigweed; [19]): 100 | Plant response rating, Velvetleaf (velvetleaf [5]; [15]): 80 | Velvetleaf plant response rating (velvetleaf [5]): 60 | Plant response rating (scale of 0 to 100 where 0 is no effect and 100 is complete control), Johnsongrass (johnsongrass): 5 | Johnsongrass plant response rating (johnsongrass): 5 | Plant response rating, Johnsongrass (johnsongrass; [15]): 85 | Plant response rating, Johnsongrass (johnsongrass; [16]): 30 | Plant response rating, Rice (rice): 45 | Plant response rating (scale of 0 to 100 where 0 is no effect and 100 is complete control), Lambsquarters (lambsquarters): 65 | Lambsquarters plant response rating (lambsquarters): 80 | Plant response rating, Lambsquarters (lambsquarters; [15]): 95 | Plant response rating, Lambsquarters (lambsquarters; [16]): 90 | Plant response rating, Sedge, Umbrella (sedge, umbrella): 95 | Wheat plant response rating (wheat [6]; [11]): 80 | Wheat plant response rating (wheat [6]; [12]): 85 | Plant response rating, Wheat (wheat [6]; [20]): 90 | Wheat plant response rating (wheat [6]; [21]): 90 | Plant response rating, Waterhemp (waterhemp; [15]): 85 | Waterhemp plant response rating (waterhemp): 70
